{"source": "paper PMC11395447", "about": "“Development and Optimization of a Bromothymol Blue-Based PLA2 Assay Involving POPC-Based Self-Assemblies” (International Journal of Molecular Sciences, 2024)", "molecular_target": "T1, PLA2-IB (Phospholipase A2 IB) (Sus scrofa, UniProt P00592)", "T1 construct": "gene PLA2G1B", "T1 sequence (P00592 23-146)": "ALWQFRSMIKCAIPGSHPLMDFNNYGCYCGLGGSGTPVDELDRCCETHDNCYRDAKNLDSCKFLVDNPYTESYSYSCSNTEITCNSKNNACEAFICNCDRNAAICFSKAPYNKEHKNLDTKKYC", "assay": "bromothymol blue absorbance assay, Michaelis-Menten kinetics on POPC liposomes (Km)", "assay_type": "biochemical"}
{"substance": "POPC", "values": [{"measurement": "Km", "value": 12.9, "unit": "µM"}]}
